For four molecules, inhibition results are on record in patent US20130040814A1, “HERBICIDAL COMPOSITION” (ISHIHARA SANGYO KAISHA, LTD., priority 2010, published 2013).

In assay [1] the test system is purple nutsedge. Description: Test Example 4: pot test, foliar application of flazasulfuron and dichlobenil wettable powder, visual growth inhibition. The note with it: Cyperus. It is filed as in vivo. An excerpt:
(§1) Measured value of growth inhibition rate(%)(evaluated value by visual observation)=0(equivalent to non-treated area) to 100(complete kill)
(§2) That is, the measured value of growth inhibition rate (%) was rated to be 0% in a case where the level of the growth inhibition of weeds was the same in the non-treated area and to be 100% in a case where the growth was completed inhibited and the weeds were killed.
(§3) Upland field soil was put into a 1/1,000,000 ha pot, and tubers of purple nutsedge were planted. When purple nutsedge reached a 13 leaf stage, a predetermined amount of SHIBAGEN DF (tradename) and a predetermined amount of a wettable powder containing dichlobenil as an active ingredient (tradename: Kasoron wettable powder, manufactured by AGRO-KANESHO Co., Ltd.) were diluted with water (corresponding to 2,000 L/ha) containing 0.02 vol % of Kusa-rino (tradename) and applied by foliar application by means of a small sprayer.
On the 42nd day after application, the state of growth of purple nutsedge was visually observed, and in the same manner as in Test Example 1, the measured growth inhibition rate (%) and the calculated growth inhibition rate (%) obtained by the Colby's formula are shown in Table 4.

Assay [2] deals with green kyllinga. Nature of the assay: Test Example 6: pot test, sodium salt of trifloxysulfuron and chlorthiamid or dichlobenil, visual growth inhibition. The note with it: Cyperus brevifolius, 42nd day after application, height 10 cm, read-out: Growth inhibition rate (%) of green kyllinga, Measured value; for inhibition at 5000 g/ha: dose 5,000 g/ha. It is filed as in vivo, Kyllinga brevifolia var. leiolepis.
Description: as §1, §2, §3
Upland field soil was put into a 1/1,000,000 ha pot, rhizomes of green kyllinga (Kyllinga brevifolia var. leiolepis) were planted. When the height of green kyllinga reached 10 cm, a predetermined amount of Monument water dispersible granules (tradename) and a predetermined amount of chlorthiamid (reagent, manufactured by Wako Pure Chemical Industries, Ltd.) or Kasoron wet powder (tradename) were applied in the same manner as in Test Example 4.

For assay [3], the system named is purple nutsedge. Description: Test Example 3: pot test, foliar application of herbicidal composition, visual growth inhibition. The note with it: Cyperus, read-out: Growth inhibition rate (%) of purple nutsedge, Measured value. It is filed as in vivo, Cyperus rofundus L.
Description: as §1, §2
Upland field soil was put into a 1/1,000,000 ha pot, and tubers of purple nutsedge (Cyperus rofundus L) were planted. 54 days later, when purple nutsedge reached a height of 25 to 30 cm, a predetermined amount of a herbicidal composition was diluted with water (corresponding to 200 L/ha) containing 0.02 vol % of an agricultural adjuvant (tradename: Kusa-rino, manufactured by Nihon Nohyaku Co., Ltd.) and applied by foliar application by means of a small sprayer.
On the 42nd day after application, the state of growth of the plant was visually observed, and in the same manner as in Test Example 1, the measured growth inhibition rate (%) and the calculated growth inhibition rate (%) obtained by the Colby's formula are shown in Table 3.

Assay [4] deals with purple nutsedge. Nature of the assay: Test Example 1: pot test, foliar application of flazasulfuron and granule application of chlorthiamid, visual growth inhibition. It is filed as in vivo, Cyperus rofundus L. The note with it: Cyperus, read-out: Growth inhibition rate (%) of purple nutsedge, Measured value.
Description: When the herbicidal activity in a case where two active ingredients are combined, is larger than the simple sum (the expected activity) of the respective herbicidal activities of the two active ingredients, it is called a synergistic effect. The activity expected by the combination of two active ingredients can be calculated as follows (Colby S. R., “Weed”, vol. 15, p. 20-22, 1967).
(§4) Upland field soil was put into a 1/1,000,000 ha pot, and tubers of purple nutsedge (Cyperus rofundus L.) were planted. 33 days later, when purple nutsedge reached a 6 to 7 leaf stage, a predetermined amount of water dispersible granules containing flazasulfuron as an active ingredient (tradename: SHIBAGEN DF, manufactured by Ishihara Sangyo Kaisha, Ltd.) was diluted with water (corresponding to 200 L/ha) containing 0.02 vol % of an agricultural adjuvant (tradename: Kusa-rino, manufactured by Nihon Nohyaku Co., Ltd.) and applied by foliar application by means of a small sprayer, and a predetermined amount of granules containing chlorthiamid as an active ingredient (tradename: GF Ben-pole granules, manufactured by Suimitomo Chemical Garden Products Inc.) was applied by granule application.
as §1, §2

The test system of assay [5] is green kyllinga. Nature of the assay: Test Example 5: pot test, sodium salt of trifloxysulfuron and chlorthiamid, visual growth inhibition. It is filed as in vivo, Kyllinga brevifolia var. leiolepis. The note with it: Cyperus brevifolius, 42nd day after application, height 6 to 8 cm, read-out: Growth inhibition rate (%) of green kyllinga, Measured value.
Description: as §1, §2, §3
Upland field soil was put into a 1/1,000,000 ha pot, rhizomes of green kyllinga (Kyllinga brevifolia var. leiolepis) were planted.

Assay [6] has as its system green kyllinga. Nature of the assay: Test Example 2: pot test on green kyllinga, visual growth inhibition. It is filed as in vivo, Kyllinga brevifolia var. leiolepis. The note with it: Cyperus brevifolius, read-out: Growth inhibition rate (%) of green kyllinga, Measured value. How it is done:
as §4, §1, §2
Upland field soil was put into a 1/1,000,000 ha pot, and rhizomes of green kyllinga (Kyllinga brevifolia var. leiolepis) were planted. 46 days later, when the height of green kyllinga reached 4 to 7 cm, a predetermined amount of SHIBAGEN DF, (tradename) and a predetermined amount of GF Ben-pole (tradename) were applied in the same manner as in Test Example 1.

Setting [7] is: read-out: Growth inhibition rate (%) of purple nutsedge, Measured value.

Each structure is given as a SMILES string. Structures can show the parent of a compound that is named as a salt.

One may read the inhibition as the relative decrease from the control value, in per cent. Take `N#Cc1c(Cl)cccc1Cl` [Dichlobenil, 2,6-dichlorobenzonitrile]: in the assay on purple nutsedge [1] (setting [7]), the inhibition at 500 g/ha came out at 10% and the inhibition at 4000 g/ha was 33%. Also, the inhibition at 5000 g/ha in the assay with green kyllinga [2] was determined as 58%. In the assay with purple nutsedge [3], the inhibition at 500 g/ha was determined as 10%, the inhibition at 1000 g/ha is 23%, the inhibition at 2000 g/ha came out at 10% and the inhibition at 4000 g/ha stood at 33%.

With `NC(=S)c1c(Cl)cccc1Cl` [Chlorthiamid, 2,6-dichlorothiobenzamide], in the assay with purple nutsedge [4], the inhibition at 1000 g/ha was 35%, the inhibition at 2000 g/ha is 33%, the inhibition at 4000 g/ha was found to be 50% and the inhibition at 6000 g/ha is 69%. Also, the inhibition at 1000 g/ha with green kyllinga [5] (dose 1,000 g/ha) is 18%. Also, in the assay on green kyllinga [5] (dose 10,000 g/ha), the inhibition at 10000 g/ha came to 30%. In addition, in the assay with green kyllinga [6], the inhibition at 1000 g/ha was determined as 20% and the inhibition at 5000 g/ha came out at 65%. Further, in the assay with green kyllinga [2], the inhibition at 5000 g/ha worked out at 58%. Further, in the assay on purple nutsedge [3], the inhibition at 500 g/ha was found to be 0%, the inhibition at 1000 g/ha came to 0%, the inhibition at 2000 g/ha was 18% and the inhibition at 4000 g/ha was found to be 33%.

On to `COc1cc(OC)nc(NC(=O)NS(=O)(=O)c2ncccc2C(F)(F)F)n1` [Flazasulfuron, 1-(4,6-dimethoxypyrimidin-2-yl)-3-(3-trifluoromethyl-2-pyridylsulfonyl)urea], for which the inhibition at 25 g/ha in the assay with purple nutsedge [4] (dose 25 g/ha, 36th day after application, 6 to 7 leaf stage) turned out to be 18%; with purple nutsedge [1] (dose 25 g/ha, 42nd day after application, 13 leaf stage, read-out: Growth inhibition rate (%) of Purple nutsedge, Measured value), 87%; in the assay on purple nutsedge [3] (dose 25 g/ha, 42nd day after application, height 25 to 30 cm) it was 87%. Further, the inhibition at 50 g/ha in the assay on purple nutsedge [4] (dose 50 g/ha, 36th day after application, 6 to 7 leaf stage) was 73%; in the assay on green kyllinga [6] (dose 50 g/ha, 54th day after application, height 4 to 7 cm), 80%; with purple nutsedge [3] (dose 50 g/ha, 42nd day after application, height 25 to 30 cm) it was 98%.

For `COc1cc(OC)nc(NC(=O)NS(=O)(=O)c2ncccc2OCC(F)(F)F)n1` [Sodium salt of trifloxysulfuron, 1-(4,6-dimethoxypyrimidin-2-yl)-3-[3-(2,2,2-trifluoroethoxy)-2-pyridylsulfonyl]urea], the inhibition at 10 g/ha in the assay on green kyllinga [5] (dose 10 g/ha) worked out at 0%. In addition, the inhibition at 200 g/ha in the assay with green kyllinga [5] (dose 200 g/ha) amounted to 25%. In the assay with green kyllinga [2] (dose 45 g/ha), the inhibition at 45 g/ha was 0%.
